Measured values published in US20080045514A1 (Cytovia, Inc., priority 2006, published 2008).
Read-outs that look alike come from different tables or passages of the source.

Assays:
Type in all cases: cell-based
[1] = test system: human breast cancer cell line T-47D; assay: Caspase cascade activation (EC50), T-47D; conditions: T47D cells, caspase cascade activation, read-out: caspase potency (EC50) T47D
In short: (§1)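 48 h compound exposure (0.016–10 μM final) at 37 °C, 5% CO2; then DEVD-R110 substrate in lysolecithin/DTT/PIPES pH 7.2 buffer, 3 h RT. Fluorescence ex485/em530; net RFU = T=3 h minus control T=0; ratio to control; sigmoidal fit → EC50 (nM).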

[2] = test system: human breast cancer cell line T-47D; assay: Inhibition of cell proliferation (GI50), T47D; conditions: T47D cells, 48 h, CellTiter-Glo
Experimental: (§2) Human breast cancer cell lines T-47D, human hepatocellular carcinoma cell line SNU398, human colon carcinoma cell line HCT116, human lung cancer cell line H1299, human leukemia cell line K562, human lymphoma cell line Raji, human B cell lymphoblastoid cell line Ramos, and human Burkitt's lymphoma cell line Namalwa were grown and harvested as in Example 100. An aliquot of […] of cells (4.4×10^4 cells/mL) was added to a well of a 96-well microtiter plate containing 5 μL of a 10% DMSO in RPMI-1640 media solution containing 10 nM to 100 μM of 3-(2-chlorophenyl)-6-(3,4-methylenedioxyphenyl)-7H-[1,2,4]triazolo[3,4-b][1,3,4]thiadiazine (1 nM to 10 μM final). An aliquot of 45 μL of cells was added to a well of a 96-well microtiter plate containing 5 μL of a 10% DMSO in RPMI-1640 media solution without compound as the control sample for maximal cell proliferation (LMax). The samples were mixed by agitation and then incubated at 37° C. for 48 h in a 5% CO2-95% humidity incubator. After incubation, the samples were removed from the incubator and 25 μL of CellTiter-Glo™ reagent (Promega) was added. The samples were mixed by agitation and incubated at room temperature for 10-15 min. Plates were then read using a luminescent plate reader (Model SPECTRAfluor Plus, Tecan) to give Ltest values.
(§3) The samples were mixed by agitation and then incubated at 37° C. for 0.5 h in a 5% CO2-95% humidity incubator. After incubation, the samples were removed from the incubator and 25 μL of CellTiter-Glo™ reagent (Promega) was added. The samples were mixed by agitation and incubated at […] 10-15 min at room temperature in a 5% CO2-95% humidity incubator. Fluorescence was read as above, (LStart) defining luminescence for initial cell number used as baseline in GI50 determinations.
(§4) Calculation: GI50 (dose for 50% inhibition of cell proliferation) is the concentration where [(Ltest−LStart)/(LMax−LStart)]=0.5.

[3] = test system: human hepatocellular carcinoma cell line SNU398; assay: Inhibition of cell proliferation (GI50), SNU398; conditions: SNU 398 cells, 48 h, CellTiter-Glo
Experimental: as §2, §3, §4

[4] = test system: human colon carcinoma cell line HCT116; assay: Inhibition of cell proliferation (GI50), HCT116; conditions: HCT 116 cells, 48 h, CellTiter-Glo
Experimental: as §2, §3, §4

[5] = test system: human hepatocellular carcinoma cell line SNU398; assay: Caspase cascade activation (EC50), SNU398; conditions: Homo sapiens, SNU-398; SNU398 cells; caspase cascade activation; read-out: caspase potency (EC50) SNU398
In short: as §1

[6] = test system: human colon carcinoma cell line HCT116; assay: Caspase cascade activation (EC50), HCT116; conditions: Homo sapiens, HCT-116; HCT116 cells; caspase cascade activation; read-out: caspase potency (EC50) HCT116
In short: as §1

[7] = test system: human cancer cell line H1299; assay: Caspase cascade activation (EC50), H1299; conditions: NCI-H1299, H1299 cells, read-out: caspase potency (EC50) H1299
Experimental: Human breast cancer cell lines T-47D, human hepatocellular carcinoma cell line SNU398, human colon carcinoma cell line HCT116, human cancer cell line H1299, human Burkitt's lymphoma cell line Namalwa, human lymphoma cell line Raji, and human B cell lymphoblastoid cell line Ramos were grown according to media component mixtures designated by American Type Culture Collection+10% FCS (Invitrogen Corporation), in a 5% CO2-95% humidity incubator at 37° C. T-47D and H1299 cells were maintained at a cell density between 50 and 80% confluency at a cell density of 0.1 to 0.6×10^6 cells/mL. Cells were harvested at 600×g and resuspended at 0.65×10^6 cells/mL into appropriate media+10% FCS. An aliquot of 22.5 μL of cells was added to a well of a 384-well microtiter plate containing 2.5 μL of a 10% DMSO in RPMI-1640 media solution containing 0.16 to 100 μM of 3-(2-chlorophenyl)-6-(3,4-methylenedioxyphenyl)-7H-[1,2,4]triazolo[3,4-b][1,3,4]thiadiazine or other test compound (0.016 to 10 μM final). An aliquot of 22.5 μL of cells was added to a well of a 384-well microtiter plate containing 2.5 μL of a 10% DMSO in RPMI-1640 media solution without test compound as the control sample. The samples were mixed by agitation and then incubated at 37° C. for 48 h in a 5% CO2-95% humidity incubator. After incubation, the samples were removed from the incubator and 25 μL of a solution containing 14 μM of N—(Ac-DEVD)-N′-ethoxycarbonyl-R110 (SEQ ID No.:1) fluorogenic substrate (Cytovia, Inc.; WO99/18856), 20% sucrose (Sigma), 20 mM DTT (Sigma), 200 mM NaCl (Sigma), 40 mM Na PIPES buffer pH 7.2 (Sigma), and 500 μg/mL lysolecithin (Calbiochem) was added. The samples were mixed by agitation and incubated at room temperature. Using a fluorescent plate reader (Model SPECTRAfluor Plus, Tecan), an initial reading (T=0) was made approximately 1-2 min after addition of the substrate solution, employing excitation at 485 nm and emission at 530 nm, to determine the background fluorescence of the control sample. After the 3 h incubation, the samples were read for fluorescence as above (T=3 h). Calculation: The Relative Fluorescence Unit values (RFU) were used to calculate the sample readings as follows: RFU(T=3H)−Control RFU(T=0)=Net RFU(T=3h) The activity of caspase cascade activation was determined by the ratio of the net RFU value for 3-(2-chlorophenyl)-6-(3,4-methylenedioxyphenyl)-7H-[1,2,4]triazolo[3,4-b][1,3,4]thiadiazine (Example P) or other test compound to that of control samples. The EC50 (nM) was determined by a sigmoidal dose-response calculation (Prism 3.0, GraphPad Software Inc.).

[8] = test system: human Burkitt's lymphoma cell line Namalwa; assay: Caspase cascade activation (EC50), Namalwa; conditions: Homo sapiens, Burkitts lymphoma cell; Namalwa cells; caspase cascade activation; read-out: caspase potency (EC50) Namalwa
In short: as §1

[9] = test system: human lymphoma cell line Raji; assay: Caspase cascade activation (EC50), Raji; conditions: Homo sapiens, RAJI cells, read-out: caspase potency (EC50) RAJI
In short: as §1

[10] = test system: human B cell lymphoblastoid cell line Ramos; assay: Caspase cascade activation (EC50), Ramos; conditions: Homo sapiens, RAMOS cells, read-out: caspase potency (EC50) RAMOS
In short: as §1

[11] = test system: human leukemia cell line K562; assay: Inhibition of cell proliferation (GI50), K562; conditions: Homo sapiens; K562 cells, 48 h, CellTiter-Glo
Experimental: as §2, §3, §4

[12] = test system: human lymphoma cell line Raji; assay: Inhibition of cell proliferation (GI50), Raji; conditions: Homo sapiens; Raji cells, 48 h, CellTiter-Glo
Experimental: as §2, §3, §4

[13] = test system: human B cell lymphoblastoid cell line Ramos; assay: Inhibition of cell proliferation (GI50), Ramos; conditions: Homo sapiens; Ramos cells, 48 h, CellTiter-Glo
Experimental: as §2, §3, §4

[14] = test system: human Burkitt's lymphoma cell line Namalwa; assay: Inhibition of cell proliferation (GI50), Namalwa; conditions: Homo sapiens, Burkitts lymphoma cell; Namalwa cells, 48 h, CellTiter-Glo
Experimental: as §2, §3, §4

EC50 [1] | GI50 [2] | GI50 [3] | GI50 [4] | EC50 ([1]; Homo sapiens) | EC50 [5] | EC50 [6] | EC50 [7] | EC50 [8] | EC50 [9] | EC50 [10] | GI50 ([4]; Homo sapiens) | GI50 [11] | GI50 [12] | GI50 [13] | GI50 [14] | GI50 ([2]; Homo sapiens) | GI50 ([3]; Homo sapiens) | Compound
609 nM | 936 nM | 2000 nM | 1150 nM | – | – | – | – | – | – | – | – | – | – | – | – | – | – | 3-(3,5-Dimethoxyphenyl-4-(2-dimethylaminoethoxy)phenyl)-6-(4-methylphenyl)-7H-[1,2,4]triazolo[3,4-b][1,3,4]thiadiazine [Example 16]
– | – | – | – | 2710 nM | 266 nM | 431 nM | 1250 nM | 270 nM | 455 nM | 331 nM | 396 nM | 267 nM | 133 nM | 108 nM | 254 nM | – | – | CCOc1ccc(C2=Nn3c(nnc3-c3ccc(C)cc3)SC2)cc1 [B, 3-(4-Methylphenyl)-6-(4-ethoxyphenyl)-7H-[1,2,4]triazolo[3,4-b][1,3,4]thiadiazine]
– | – | – | – | 118 nM | 24 nM | 46 nM | – | 29 nM | 50 nM | 31 nM | 21 nM | – | – | – | – | 15 nM | 25 nM | COc1cc(-c2nnc3n2N=C(c2ccc(C)cc2)CS3)cc(OC)c1OC [Example 17, 3-(3,4,5-Trimethoxyphenyl)-6-(4-methylphenyl)-7H-[1,2,4]triazolo[3,4-b][1,3,4]thiadiazine]
– | – | – | – | 163 nM | 41 nM | 65 nM | – | 49 nM | – | – | 129 nM | – | – | – | 29 nM | 137 nM | 50 nM | COc1ccccc1-c1nnc2n1N=C(c1ccc(C)c(C)c1)CS2 [Example 40, 3-(2-Methoxyphenyl)-6-(3,4-dimethylphenyl)-7H-[1,2,4]triazolo[3,4-b][1,3,4]thiadiazine]
– | – | – | – | 422 nM | 180 nM | 289 nM | – | 182 nM | – | – | 1270 nM | – | – | – | 208 nM | 261 nM | 117 nM | COc1cc(C)ccc1C1=Nn2c(nnc2-c2ccccc2OC)SC1 [Example 41, 6-(2-Methoxy-4-methylphenyl)-3-(2-methoxyphenyl)-7H-[1,2,4]triazolo[3,4-b][1,3,4]thiadiazine]
– | – | – | – | 2120 nM | > 10000 nM | > 10000 nM | – | > 10000 nM | 5400 nM | 2590 nM | 5000 nM | – | – | – | – | 5000 nM | 4600 nM | CCOc1cccc(-c2nnc3n2N=C(c2ccc4c(c2)OCO4)CS3)c1 [Example E1, 3-(3-Ethoxyphenyl)-6-(3,4-methylenedioxyphenyl)-7H-[1,2,4]triazolo[3,4-b][1,3,4]thiadiazine]
– | – | – | – | 503 nM | 61 nM | 100 nM | – | 80 nM | 121 nM | 65 nM | 359 nM | 37 nM | 587 nM | 33 nM | 112 nM | – | – | COc1ccc(C2=Nn3c(nnc3-c3cccc(C)c3)SC2)cc1 [Example Q2]
– | – | – | – | 537 nM | 86 nM | 168 nM | – | 129 nM | 190 nM | 127 nM | 1100 nM | 72 nM | 730 nM | 100 nM | 256 nM | – | – | COc1ccc(C2=Nn3c(nnc3-c3ccc(C)cc3)SC2)cc1 [Example U2]
– | – | – | – | 312 nM | 195 nM | 268 nM | – | 250 nM | 444 nM | 256 nM | 1130 nM | 400 nM | 1260 nM | 346 nM | 975 nM | – | – | COc1ccc(C2=Nn3c(nnc3-c3n[nH]c4c3CCC4)SC2)cc1 [Example V2]
– | – | – | – | 1340 nM | 92 nM | 126 nM | 339 nM | 62 nM | 141 nM | 93 nM | 141 nM | 27 nM | 62 nM | 17 nM | 24 nM | – | – | CCOc1ccc(C2=Nn3c(nnc3-c3ccccc3C)SC2)cc1 [L, 3-(2-Methylphenyl)-6-(4-ethoxyphenyl)-7H-[1,2,4]triazolo[3,4-b][1,3,4]thiadiazine]
– | – | – | – | 557 nM | 115 nM | 242 nM | 553 nM | 122 nM | 109 nM | 77 nM | 121 nM | 42 nM | 89 nM | 17 nM | 117 nM | – | – | COc1ccc(C2=Nn3c(nnc3-c3cccc(Cl)c3)SC2)cc1 [R, 3-(3-Chlorophenyl)-6-(4-methoxyphenyl)-7H-[1,2,4]triazolo[3,4-b][1,3,4]thiadiazine]
